Values of other authors in patent US20020006953A1, “MODIFICATION OF CHOLESTEROL CONCENTRATIONS WITH CITUS PHYTOCHEMICALS” (priority 1999, published 2002).

Tests used:
[1] = system: HepG2 cells
[2] = 10% hesperidin diet
[3] = system: lipase

| Compound | net secretion of apo B [1] | plasma concentration of triacylglycerols [2] | activity of lipase [3] |
| --- | --- | --- | --- |
| COc1ccc([C@@H]2CC(=O)c3c(O)cc(O)cc3O2)cc1O [hesperetin] | reduced | – | – |
| COc1ccc([C@@H]2CC(=O)c3c(O)cc(O[C@@H]4O[C@H](CO[C@@H]5O[C@@H](C)[C@H](O)[C@@H](O)[C@H]5O)[C@@H](O)[C@H](O)[C@H]4O)cc3O2)cc1O [hesperidin] | – | significantly reduced | inhibit |
| O=C1C[C@@H](c2ccc(O)cc2)Oc2cc(O)cc(O)c21 [naringinin] | reduced | – | – |
